# From patent US6590123B2, “Aminobenzoic acid derivatives having anti-tumorigenic activity, methods of making and using the same” (Mount Sinai School of Medicine of New York University, priority 1998, dated 2003)
# Where “and” joins values, the source holds several entries; their conditions need not be identical. Equal entries are not always repeated. Entries after “also recorded” stand apart in the source; their conditions may differ. Where two headings read alike, the source gives them in different places.
# Columns and labels:
# CEM cells [1] = assay: Cytotoxicity, ID50 and ID90 by trypan blue staining; assay type: cell-based; conditions: for IC90 / IC50: Homo sapiens, CCRF-CEM; for IC90: 48 h, read-out: ID90 (the source's name); for IC50: NT = Non-toxic to CEM cells
# Method: CEM cells, a human T-cell lymphoblastoid leukemia cell line (American Type Culture Collection, Rockville, Md.), were cultured in suspension (Iscove's Dulbecco's Medium) supplemented with 10% heat inactivated fetal bovine serum (FBS), penicillin (250 μ/ml) and streptomycin (250 μl/ml). Cells were incubated at 37° C. in 5% C02 and only those cells in exponential growth were used.
# CEM cells were seeded into 96-well microplates (Falcon, Oxnard, Calif.) at 10^5 cell per well, then treated with 0-10 μg/ml of the candidate compounds for 48 h at 37° C. yielding a total volume of 250 μ/well. Cell viability was assessed by trypan blue staining. ID50 and ID90 were defined as the concentration killing 50% or 90% of the cells in comparison with untreated controls, and calculated by non-linear regression analysis.
# Cells in suspension culture were seeded into 96-well microplates (Falcon, Oxnard, Calif.) at 10^5 cell per well, followed, by treatment with 0-10 μg/ml of the candidate compounds for 48 hr at 37° C. with total volume of 250 μl per well. Cell viability was assessed by trypan blue exclusion.
# The ID50 and ID90 was determined in duplicate in every set of experiments, and each experiment was repeated 3 times under identical conditions. ID50 and ID90 were defined as drug concentrations that induced 50% or 90% cellular death in comparison with untreated controls and calculated by non-linear regression analysis. […]
# CEM cells [2] = assay: DNA fragmentation by electrophoresis (apoptosis); assay type: cell-based, human; conditions: for apoptosis, DNA fragmentation on gel electrophoresis: 48 hours, compound 8 0.025 μg/ml, compound 9 0.005 μg/ml, fluorine compound 5.0 μg/ml, chlorine compound 0.75 μg/ml; for Apoptosis: 0.025 μg/ml, DNA electrophoresis
# Method: DNA fragmentation was determined by a method reported previously (reference 3). Briefly, cells were treated in 1 ml lysis buffer (0.01M Tris. HCL pH 8.0, 0.01M NaCl, 0.01M EDTA pH 8.0 and 5% sodium dodecyl sulfate) containing 1 μg/ml protease K for 1 h at 50° C. The resulting products were extracted with phenol and chloroform:isoamylalcohol (24:1, v/v), and precipitated with ethanol followed by centrifugation at 7800 g (Sorvall RC-5B Du Pont, Newtown, Conn.). The ethanol was removed and the dry pellets of nucleic acid were resuspended in 10 mM Tris-HCL/1 mM EDTA solution. When DNA content was determined spectrophotometrically all samples had A260/A280 ratio≧2. The DNA samples were then treated with RNase (Sigma, St. Louis, Mo.) at a final concentration of 0.1 μg/μl for 20 min at 37° C. before gel loading. Approximately 4 μg size DNA aliquots were loaded onto horizontal agarose gel (1.5%) prepared with 1% ethidium bromide. Electrophoresis was performed at 75 volts for 2 h and the DNA patterns were visualized with UV light.
# […] After incubation, cells were washed twice in PBS. Cell pellets were resuspended in drug-free medium and incubated for 48 hr at 37° C. Cell viability, morphology, mitotic spindles, cell cycle distribution and apoptosis were determined 24 hr and 48 hr post pulse exposure.
# Soluble DNA from cells was extracted by the method reported previously (14). Briefly, after washing with PBS, cells were treated in 1 ml lysis buffer (0.01 M Tris.HCL pH 8.0, 0.01 M NaCl, 0.01M EDTA pH 8.0 and 5% sodium dodecyl sulfate) containing 1 μg/ml proteinase K for 1 hr at 50° C. The resulting products were extracted with phenol and chloroform:isoamylalcohol (24:1, v/v), and precipitated with ethanol followed by centrifugation at 7800 g (Sorvall RC-5B Du Pont, Newtown, Conn.). The ethanol was removed and the dry pellet of nucleic acid was resuspended in 10 mM Tris-HCL/1 mM EDTA solution. DNA content was determined spectrophotometrically by measuring absorption at 260 nm (A260). All samples, had A260/A280≧2. The DNA samples were then treated with RNase (Sigma, St. Louis, Mo.) at a final concentration of 0.1 μg/l for 20 min at 37° C. before gel loading. The DNA sample (4 μg) was analyzed in 1.5% horizontal agarose gel prepared with 1% ethidium bromide. Electrophoresis was performed at 75 volts for 2 hours and the DNA migration was visualized under UV light.
# Purified tubulin = assay: Inhibition of microtubule assembly by spectrophotometry, cell free system; assay type: biochemical, calf; conditions: cell free tubulin; for inhibition of microtubule assembly: 1 μg/ml (3.3 μM for 3-BAABU)
# Method: Purified tubulin was purchased from Sigma (St. Louis, Mo.). The effects of compounds 6, 7, 8, 9, paclitaxel and vinblastine on the microtubule assembly-disassembly process were determined using conditions recommended by the vendor. For assembly inhibition, 100 μl tubulin solution (500-600 μg protein/ml) was mixed gently with 400 μl reaction buffer containing 0.1 M MES (2-[N-morpholino]ethane sulfonic acid), 1 mM EGTA ([…]-N,N,N′,N′-tetraacetic acid), 0.5 mM MgCl2, 0.1 mM EDTA and 2.5 M gycerol at 37° C. Compounds 6, 7, 8, and 9 were next added to each sample at final concentrations of 10, 10, 1 and 1 μg/ml, respectively. After adding GTP to each sample to a final concentration of 1 mM, the microtubule assembly process was monitored by measuring the change of absorbance (OD) at 350 nm on a spectrophotometer (Ultrospec III, Pharmacia LKB, Uppsala, Sweden). A completed assembly process was observed within 40 min at room temperature. For disassembly inhibition, compounds 6, 7, 8, and 9 were added, at the above concentrations, to covets with repolymerized microtubules as described above, and incubated in melting ice. Changes of absorbance (OD) were monitored at 350 nm for 30 min until the OD values in the controls returned to the starting level, i.e., when the assembly-disassembly cycle was completed.
# Purified tubulin from calf brain was purchased from Sigma (St. Louis, Mo.). The effects of 3-BAABU (3-bromoacetoamido, benzoylurea) on the microtubule assembly-disassembly process were determined using the conditions recommended by the vendor. For assembly inhibition, 100 μl tubulin solution (500-600 μg protein/ml) was mixed gently with 400 μl reaction buffer containing 0.1 M MES, 1 mM EGTA, 0.5 mM MgCl2, 0.1 mM EDTA and 2.5 M glycerol at 37° C. 3-BAABU, paclitaxel or vinblastine were then added to each sample cuvet at final concentrations of 3.3, 23 or 22 μM, respectively. After adding GTP to each sample to a final concentration of 1 mM, the microtubule assembly process was monitored by measuring the change of absorbance (OD) every 5 min at 350 nm on a spectrophotometer (Ultrospec III, Pharmacia LKB, Uppsala, Sweden). A completed assembly process was observed within 40 min at room temperature. For disassembly inhibition, 3-BAABU (3.3 μM), paclitaxel (23 μM) or vinblastine (22 μM) was added to a cuvet with repolymerized microtubules according to the method described above, and incubated in melting ice. Changes of absorbance (OD) were monitored at 350 nm for 30 min until the OD values in the controls returned to the starting level, i.e., completion of the assembly-disassembly cycle. Solvent solutions were used as control and had no effect in either the assembly or disassembly process.
# [3] = CEM cells, concentration killing 90% of the cells
SMILES,fold increase of ID50 relative to 3-BAABU (CEM cells [1]; CEM leukemic cells) [fold],IC90 (CEM cells [1]; [3]),"IC50 (CEM cells [1]; CEM leukemic cells, 48 hr) [nM]","apoptosis, DNA fragmentation on gel electrophoresis (CEM cells [2])",effect on microtubule assembly (Purified tubulin; up to 10 μg/ml),"IC90 (CEM cells [1]; CEM, Human T-cell Leukemia, 48 hr) [µg/mL]","ID50 of non-malignant cells relative to leukemic and lymphoma cell lines (times) (CEM cells [1]; non-malignant cells vs leukemia or lymphoma cell lines, listed as 3-BAABU)",Apoptosis (CEM cells [2]; Continuous Exposure (24 hr; 48 hr in footnote)),Apoptosis (CEM cells [2]; Pulse Exposure (1 hr)),inhibition of microtubule assembly (Purified tubulin),inhibition of microtubule assembly (Purified tubulin; listed as 3-BAABU),"fold more toxic than the bromine compound 8 (CEM cells [1]; CEM cells, cytotoxicity) [fold]","fold more toxic than the chlorine compound 7 (CEM cells [1]; CEM cells, cytotoxicity) [fold]"
"NC(=O)NC(=O)c1cccc(NC(=O)CCl)c1 [Compound 7, 3-Chloroacetoamido, benzoylurea]",40,0.6 µg/mL and 2.3 µM,1950,much less DNA fragmentation,very weak inhibitory effect; also recorded: no effect,–,–,–,–,–,–,–,–
"NC(=O)NC(=O)c1cccc(NC(=O)CBr)c1 [Compound 8, 3-Bromoacetoamido, benzoylurea]",–,0.025 µg/mL and 82 nM,40,180-200 bp multiple-unit ladder pattern,–,0.02 ± 0.003,60-150 times,++++ (++++: >75% cells were affected),++++ (++++: >75% cells were affected),complete inhibition; also recorded: completely inhibited,Complete inhibition,–,–
"NC(=O)NC(=O)c1cccc(NC(=O)CI)c1 [Compound 9, 3-Iodoacetoamido, benzoylurea]",–,0.005 µg/mL and 14 nM,–,180-200 bp multiple-unit ladder pattern,–,–,–,–,–,complete inhibition; also recorded: completely inhibited,–,5,160
